Reference: patent publication US11691962B2 (eXIthera Pharmaceuticals, Inc., priority 2018, dated 2023)

Assays:
Thrombin = Thrombin (Homo sapiens (Human), UniProt P00734); experiment: Dose response assay for protease inhibitors: thrombin; type: biochemical; details: selectivity, thrombin over Factor XIa
Procedure, shortened: (§1)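 Glp-Pro-Arg-AMC substrate (thrombin, trypsin) or Pro-Phe-Arg-AMC/Boc-Leu-Gly-Arg-AMC (Factor Xa), diluted to 100 μM, in 20 mM Hepes pH 7.4, 150 mM NaCl, 0.02% Tween 20; enzyme diluted to 0.5 nM before addition. Two-fold serial compound dilutions; kinetic reads at 30° C. Data yield IC50 and Kon.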

Factor XIa = Factor XIa (Homo sapiens (Human), UniProt P03951); experiment: Factor XIa enzyme inhibition assay (dose response, fluorogenic AMC substrate); type: biochemical; details: read-out: hFXIa IC50
Procedure, shortened: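 Fluorogenic progress curves (30 min, 1-min reads, 30° C) were recorded for 0.25 nM FXIa cleaving 50 μM Glp-Pro-Arg-AMC in Hepes pH 7.4 buffer with NaCl and Tween 20. Compounds were serially two-fold diluted, and IC50 was fitted with a Hill equation.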

Trypsin = experiment: Dose response assay for protease inhibitors: trypsin; type: biochemical; details: selectivity, trypsin over Factor XIa
Procedure, shortened: as §1

Factor Xa = Factor Xa (Homo sapiens (Human), UniProt P00742); experiment: Dose response assay for protease inhibitors: Factor Xa; type: biochemical; details: selectivity, Factor Xa over Factor XIa
Procedure, shortened: as §1

[1] = Caco-2 cell permeability assay; type: in vitro ADME, human; details: human, 37° C.; for Papp A→B at 60 min, 10 μM: Caco-2, apical to basolateral; for Papp B→A at 40 min, 10 μM: Caco-2, basolateral to apical
Description: (§2) The following procedure was used to determine the ability of a test compound to cross Caco-2 cells (human intestinal epithelial cells derived from a colorectal adenocarcinoma). The cells were seeded at 1×10^5 cells/cm^2 in 96-well Multiscreen™ plates (Millipore). Permeability assays were performed with the cells at days 21-25 post-seeding. Cells are typically used for 15 consecutive passages in culture.
(§3) This assay can be performed in either the apical to basolateral (A-B) or basolateral to apical (B-A) direction. The test compound was prepared at 10 μM in HBSS-MES (pH 6.5) or HBSS-HEPES (pH 7.4) with a final DMSO concentration of 1%. The working solution was then centrifuged and the supernatant added to the donor side. The assay plate was incubated at 37° C. with gentle shaking for 60 min or 40 min for the A-B or B-A assay, respectively. Samples were aliquoted from the donor side at time zero and the end point, and from the receiver side at the end point.
(§4) Reference compounds, propranolol (highly permeable), labetalol (moderately permeable), ranitidine (poorly permeable), and colchicine (P-glycoprotein substrate) were included in each assay.
(§5) Samples are analyzed by HPLC-MS/MS using selected reaction monitoring. The HPLC system consists of a binary LC pump with autosampler, a C-18 column, and a gradient.
(§6) The apparent permeability coefficient (Papp) of the test compound (Equation 2) and its recovery (Equation 3) are calculated as follows:
(§7) [formula] wherein A is the surface area of the cell monolayer (0.11 cm^2), C is concentration of the test compound expressed as peak area, D denotes donor, and R is receiver. “0”, “mid,” and “end” denote time at zero, mid-point, and end of the incubation, respectively. Δt is the incubation time. V is the volume of the donor or receiver.
(§8) This is most likely due to non-specific binding or degradation.

[2] = Aqueous solubility in PBS by HPLC-UV/VIS; type: physicochemical; details: PBS pH 7.4, 2% DMSO, 24 h at room temperature
Description: The following procedure was used to determine the aqueous solubility of a test compound in phosphate buffered saline (PBS-NaCl 137 mM, KCl 2.7 mM, Na2HPO4 8.1 mM, KH2PO4 1.5 mM, pH 7.4) in 96-well plate format by HPLC-UV/VIS analysis. The test compound was prepared at 200 μM in PBS from a 10 mM DMSO stock solution. The final DMSO concentration was 2%. The PBS buffer samples were mixed thoroughly followed by incubation at room temperature for 24 h. At the end of the incubation, the PBS buffer samples were centrifuged and supernatants analyzed by HPLC. The aqueous solubility (μM) of the test compound in PBS was determined by comparing the peak area of the principal peak in the calibration standard (200 μM) with the peak area of the corresponding peak in each of the PBS samples. The range of the assay was approximately 0.5 μM to 200 μM. The reference compounds used in each assay were metoprolol, rifampicin, ketoconazole, phenytoin, haloperidol, simvastatin, diethylstilbestrol, and tamoxifen ranking from fully soluble (200 μM) to poorly soluble (<1 μM).

Caco-2 cells = experiment: Caco-2 cell permeability assay; type: in vitro ADME, human; details: Papp, 10 μM, 37° C.
Description: as §2, §3, §4, §5, §6, §7, §8

human plasma protein = experiment: Plasma protein binding by equilibrium dialysis; type: in vitro ADME; details: pooled human plasma, 10 μM, 4 hours at 37° C.
Description: (§9) The following procedure was used to determine the plasma protein binding of a test compound in pooled plasma from human (mixed gender) via equilibrium dialysis in a 96-well plate format. The dialysate compartment was loaded with phosphate-buffered saline (pH 7.4) and the sample side was loaded with plasma spiked with the test compound at a concentration of 10 μM. After loading, samples were covered and incubated for 4 hours at 37° C. After incubation, each compartment was sampled, diluted with acetonitrile/buffer and centrifuged. The supernatants were analyzed by HPLC-MS/MS. The analyte peak areas obtained from HPLC-MS/MS analysis of each sample were used to calculate protein binding according to the following equation (Equation 4):
(§10) [formula] where: AREAp=Peak area of analyte in protein matrix; AREAb=Peak area of analyte in buffer.
(§11) The amount measured in the plasma compartment included both free and bound drug, while that on the buffer side represented free drug only; the differences were used to calculate the percentage plasma protein bound. Three reference compounds were tested in each assay: acebutolol, quinidine and warfarin.

[3] = Metabolic stability in dog hepatocytes; type: in vitro ADME; details: pooled cryopreserved hepatocytes; beagle dog hepatocytes, 2 μM compound; read-out: Dog Hepatocyte Stability (t1/2)
Description: The following procedure was used to determine the stability of test compounds in beagle dog hepatocytes in a 96-well plate format. The test compounds, including the controls, imipramine and 7-ethoxycoumarin, were dissolved at 10 mM in DMSO, followed by further 5-fold dilution with DMSO to 2 mM. Pooled cryopreserved beagle dog hepatocytes were thawed and transferred into complete medium. Cells were gently centrifuged (700 rpm for 5 min) and the pellet rinsed with KHB (Krebs Henseleit buffer). Cells were resuspended, counted using Trypan blue, and adjusted to 1 million cells/mL in KHB buffer. The 2 mM compound stock solutions were diluted 10-fold with acetonitrile, followed by a further 50-fold dilution with KHB buffer. 200 μL of these compound solutions were transferred to 96-well polypropylene assay plates and an equal volume of the hepatocyte solution was added and mixed to initiate the reaction (final assay concentrations were 2 μM compound and 500,000 cells/mL). Assay plates were incubated at 37° C. in 5% CO2 with gentle agitation. 50 μL aliquots were removed at multiple time points out to 180 minutes and quenched with 6 volumes of cold acetonitrile (containing 250 ng/mL of carbutamide and chrysin as internal standards) to terminate the reaction and precipitate protein. Quenched samples were maintained on ice. The quenched samples were centrifuged at 2000×g (3100 rpm) for 10 minutes at 4° C. 50 μL aliquots of the supernatants were removed and diluted with 100 μL Milli-Q water to reduce the % organic content prior to bioanalysis by LC-MS/MS. Peak areas corresponding to the test compound were recorded. The compound remaining was calculated by comparing the peak area at each time point to time zero. Data were analyzed and results were calculated using Microsoft Excel 2010.

[4] = Plasma protein binding by equilibrium dialysis; type: in vitro ADME; details: both sexes, pH 7.4, pooled human plasma, 4 hours at 37° C., read-out: PPB (%)
Description: as §9, §10, §11

Factor Xa, sequence (P00742 235-488): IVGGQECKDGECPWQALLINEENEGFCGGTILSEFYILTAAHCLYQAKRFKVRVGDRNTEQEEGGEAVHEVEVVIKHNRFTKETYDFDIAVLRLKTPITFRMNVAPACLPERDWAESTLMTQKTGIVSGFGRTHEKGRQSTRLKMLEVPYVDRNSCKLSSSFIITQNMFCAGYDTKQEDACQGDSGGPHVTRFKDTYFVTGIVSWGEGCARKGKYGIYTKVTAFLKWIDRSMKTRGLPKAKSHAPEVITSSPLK
Factor Xa, sequence (P00742 41-179 partner): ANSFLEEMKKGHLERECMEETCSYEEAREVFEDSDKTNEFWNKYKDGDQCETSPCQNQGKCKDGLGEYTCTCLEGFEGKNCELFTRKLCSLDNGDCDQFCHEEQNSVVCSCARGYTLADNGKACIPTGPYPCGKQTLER
Factor XIa, sequence (P03951 388-625): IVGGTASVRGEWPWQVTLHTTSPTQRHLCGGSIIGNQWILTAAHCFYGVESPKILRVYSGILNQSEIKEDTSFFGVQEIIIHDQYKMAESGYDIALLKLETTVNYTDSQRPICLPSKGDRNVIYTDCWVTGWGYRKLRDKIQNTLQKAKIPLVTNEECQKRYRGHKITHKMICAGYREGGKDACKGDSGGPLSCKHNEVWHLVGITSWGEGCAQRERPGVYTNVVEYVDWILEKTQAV
Factor XIa, sequence (P03951 19-387 partner): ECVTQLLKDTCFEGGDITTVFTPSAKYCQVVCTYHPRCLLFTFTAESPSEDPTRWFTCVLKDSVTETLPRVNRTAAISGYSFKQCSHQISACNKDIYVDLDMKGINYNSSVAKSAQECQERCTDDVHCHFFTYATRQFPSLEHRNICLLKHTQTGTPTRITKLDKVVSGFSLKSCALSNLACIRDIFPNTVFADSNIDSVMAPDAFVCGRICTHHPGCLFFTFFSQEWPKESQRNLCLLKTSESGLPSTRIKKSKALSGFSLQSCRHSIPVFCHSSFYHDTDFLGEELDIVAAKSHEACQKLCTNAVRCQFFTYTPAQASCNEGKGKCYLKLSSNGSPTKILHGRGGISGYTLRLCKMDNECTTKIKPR

## CC[C@@H](NC(=O)N1C(=O)[C@H](Cc2ccnc(N)c2)[C@H]1C(=O)N(C)c1cnn(C)c1)c1cccc(Cl)c1 [Compound 1-11, (2S,3R)-3-((2-aminopyridin-4-yl)methyl)-N2-(1-methyl-1H-pyrazol-4-yl)-N1-((R)-1-(3-chlorophenyl)propyl)-N2-methyl-4-oxoazetidine-1,2-dicarboxamide]
Thrombin
  Ratio: Thrombin/FXIa: H (“H” indicates 101-1000)
Factor XIa
  IC50: < 10 nM
Trypsin
  Ratio: Trypsin/FXIa: G (“G” indicates 1-100)
Factor Xa
  Ratio: FXa/FXIa: H (“H” indicates 101-1000)
[1]
  Papp A→B at 60 min, 10 μM: < 10 ×10⁻⁶ cm/s
  Papp B→A at 40 min, 10 μM: 11 to 30 ×10⁻⁶ cm/s

## (2S,3R)-3-((2-aminopyridin-4-yl)methyl)-N2-(1-methyl-1H-imidazol-2-yl)-N1-((R)-1-(3-fluorophenyl)propyl)-N2-methyl-4-oxoazetidine-1,2-dicarboxamide [Compound 1-79]
Thrombin
  Ratio: Thrombin/FXIa: H (“H” indicates 101-1000)
Factor XIa
  IC50: < 10 nM
[2]
  Aqueous Solubility (uM, in PBS): W (“W” indicates > 100 μM)
Trypsin
  Ratio: Trypsin/FXIa: G (“G” indicates 1-100)
Factor Xa
  Ratio: FXa/FXIa: I (“I” indicates > 500)
Caco-2 cells; apical to basolateral, 60 min
  Caco-2 Permeability (A-B): P (“P” indicates < 10 × 10^−6 cm/s)
Caco-2 cells; basolateral to apical, 40 min
  Caco-2 Permeability (B-A): Q (“Q” indicates 11-30 × 10^−6 cm/s)
Human plasma protein
  PPB (%): Z (“Z” indicates 50-90%)

## CC[C@@H](NC(=O)N1C(=O)[C@H](Cc2ccnc(N)c2)[C@H]1C(=O)N(C)c1ccsc1)c1ccccc1 [Compound 1-9, (2S,3R)-3-((2-aminopyridin-4-yl)methyl)-N2-(thiophen-3-yl)-N1-((R)-1-phenylpropyl)-N2-methyl-4-oxoazetidine-1,2-dicarboxamide]
Thrombin
  Ratio: Thrombin/FXIa: H (“H” indicates 101-1000)
Factor XIa
  IC50: < 10 nM
Trypsin
  Ratio: Trypsin/FXIa: G (“G” indicates 1-100)
Factor Xa
  Ratio: FXa/FXIa: H (“H” indicates 101-1000)
[1]
  Papp A→B at 60 min, 10 μM: 11 to 30 ×10⁻⁶ cm/s
  Papp B→A at 40 min, 10 μM: 11 to 30 ×10⁻⁶ cm/s

## CC[C@@H](NC(=O)N1C(=O)[C@H](Cc2cc(C)nc(N)c2)[C@H]1C(=O)N(C)c1ccn(C)n1)c1ccccc1 [Compound 1-48, (2S,3R)-3-((2-amino-6-methylpyridin-4-yl)methyl)-N2-(1-methyl-1H-pyrazol-3-yl)-N1-((R)-1-phenylpropyl)-N2-methyl-4-oxoazetidine-1,2-dicarboxamide]
Thrombin
  Ratio: Thrombin/FXIa: H (“H” indicates 101-1000)
Factor XIa
  IC50: < 10 nM
[3]
  half-life at 2 μM: > 4 h
Trypsin
  Ratio: Trypsin/FXIa: G (“G” indicates 1-100)
Factor Xa
  Ratio: FXa/FXIa: I (“I” indicates > 500)

## CC[C@@H](NC(=O)N1C(=O)[C@H](Cc2ccnc(N)c2)[C@H]1C(=O)N(C)c1nccn1C)c1cc(F)ccc1F [Compound 1-84, (2S,3R)-3-((2-aminopyridin-4-yl)methyl)-N2-(1-methyl-1H-imidazol-2-yl)-N1-((R)-1-(2,5-difluorophenyl)propyl)-N2-methyl-4-oxoazetidine-1,2-dicarboxamide]
Thrombin
  Ratio: Thrombin/FXIa: H (“H” indicates 101-1000)
Factor XIa
  IC50: < 10 nM
[2]; phosphate buffered saline, aqueous buffer, kinetic from dmso stock
  solubility at 24 h: > 100 µM
Trypsin
  Ratio: Trypsin/FXIa: G (“G” indicates 1-100)
Factor Xa
  Ratio: FXa/FXIa: I (“I” indicates > 500)
[1]
  Papp A→B at 60 min, 10 μM: < 10 ×10⁻⁶ cm/s
  Papp B→A at 40 min, 10 μM: 11 to 30 ×10⁻⁶ cm/s
[4]
  fraction unbound at 4 h, 10 μM: 0.1 to 0.5
